Measured values as given in PMC8119466, “A screen of FDA-approved drugs identifies inhibitors of protein tyrosine phosphatase 4A3 (PTP4A3 or PRL-3)” (Scientific Reports, 2021).
Counter-ions that a name gives are not always drawn. Like-named read-outs stand apart in the source and are kept apart here.

Assays:
Type in all cases: biochemical
recombinant PRL-1 = target: T1, recombinant PRL-1 (Homo sapiens, UniProt Q93096); experiment: In vitro phosphatase assay (DiFMUP hydrolysis), PRL-1; also: test concentration or dose not given here
T1 construct: 6xHis (N, cleaved yes); made in house; host or cells: E. coli One Shot BL21 Star
T1 sequence (Q93096 1-173): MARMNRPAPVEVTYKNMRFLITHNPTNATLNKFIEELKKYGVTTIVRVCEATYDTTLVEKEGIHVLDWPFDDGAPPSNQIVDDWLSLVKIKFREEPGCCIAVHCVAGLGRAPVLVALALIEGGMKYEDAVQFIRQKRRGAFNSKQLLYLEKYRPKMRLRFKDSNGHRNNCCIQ

recombinant PRL-2 = target: T2, recombinant PRL-2 (Homo sapiens, UniProt Q12974); experiment: In vitro phosphatase assay (DiFMUP hydrolysis), PRL-2;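 also: PRL-2 activity read as DiFMUP hydrolysis after 20 min at room temperature with drug, enzyme first pre-reduced at 4 °C for 20 min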
T2 construct: 6xHis (N, cleaved yes); made in house; host or cells: E. coli One Shot BL21 Star
T2 sequence (Q12974 1-167): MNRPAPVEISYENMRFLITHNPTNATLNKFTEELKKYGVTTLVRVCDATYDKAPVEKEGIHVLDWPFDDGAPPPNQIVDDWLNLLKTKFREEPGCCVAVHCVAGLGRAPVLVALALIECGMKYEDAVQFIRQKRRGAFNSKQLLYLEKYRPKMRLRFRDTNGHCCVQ

recombinant PRL-3 = target: T3, recombinant PRL-3 (Homo sapiens, UniProt O75365); experiment: In vitro phosphatase assay (DiFMUP hydrolysis), PRL-3; also: test concentration or dose not given here
T3 construct: 6xHis (N, cleaved yes); made in house; host or cells: E. coli One Shot BL21 Star
T3 sequence (O75365 whole entry): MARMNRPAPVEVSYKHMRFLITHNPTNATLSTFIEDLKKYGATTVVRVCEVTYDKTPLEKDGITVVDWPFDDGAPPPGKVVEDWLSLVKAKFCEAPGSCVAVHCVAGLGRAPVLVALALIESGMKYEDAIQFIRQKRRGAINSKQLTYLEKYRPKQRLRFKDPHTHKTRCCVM

[1] = FDA-approved drug screen, compared to DMSO
[2] = FDA-approved drug screen, activity compared to DMSO

Compound	% Phosphatase Activity (compared to DMSO) PRL-1 (recombinant PRL-1; [1])	% Phosphatase Activity (compared to DMSO) PRL-2 (recombinant PRL-2; [1])	% Phosphatase Activity (compared to DMSO) PRL-3 (recombinant PRL-3; [1])	other results
COc1ccnc(C[S+]([O-])c2nc3ccc(OC(F)F)cc3[nH]2)c1OC (stereo not drawn) [Pantoprazole sodium]	97%	98%	88%	
CC(C)(O/N=C(\C(=O)N[C@@H]1C(=O)N2C(C(=O)[O-])=C(C[n+]3ccccc3)CS[C@H]12)c1csc(N)n1)C(=O)O [Ceftazidime Pentahydrate]	100%	106%	103%	
CC(=O)[C@H]1CC[C@H]2[C@@H]3CCC4=CC(=O)CC[C@]4(C)[C@H]3CC[C@]12C [Progesterone]	90%	96%	76%	
CCCCCCOC(=O)N=C(N)c1ccc(NCc2nc3cc(C(=O)N(CCC(=O)OCC)c4ccccn4)ccc3n2C)cc1 [Dabigatran Etexilate]	121%	112%	106%	
Cc1ccc(NC(=O)c2ccc(CN3CCN(C)CC3)cc2)cc1Nc1nc(-c2cccnc2)cs1 [Masitinib (AB1010)]	115%	117%	92%	
CCCCCN(C)CCC(O)(P(=O)([O-])O)P(=O)(O)O.[Na+] [Ibandronate sodium]	93%	96%	109%	
CO[C@H]1C[C@@H]2CC[C@@H](C)[C@@](O)(O2)C(=O)C(=O)N2CCCC[C@H]2C(=O)O[C@H]([C@H](C)C[C@@H]2CC[C@@H](OCCO)[C@H](OC)C2)CC(=O)[C@H](C)/C=C(\C)[C@@H](O)[C@@H](OC)C(=O)[C@H](C)C[C@H](C)/C=C/C=C/C=C/1C [Everolimus (RAD001)]	86%	86%	76%	
[H]/N=C(/N)N/C(=N/[H])NCCc1ccccc1 [Phenformin HCl]	114%	120%	89%	
COc1cc2c(cc1Cc1cccc(Cl)c1F)c(=O)c(C(=O)O)cn2[C@H](CO)C(C)C [Elvitegravir (GS-9137, JTK-303)]	82%	84%	81%	
Cc1cccc(C(C)c2cnc[nH]2)c1C (stereo not drawn) [Medetomidine HCl]				% Phosphatase Activity (compared to DMSO) PRL-1 (recombinant PRL-1): 109%; % Phosphatase Activity (compared to DMSO) PRL-2 (recombinant PRL-2): 113%; % Phosphatase Activity (compared to DMSO) PRL-3 (recombinant PRL-3): 99%
COCCOC(=O)C1=C(C)NC(C)=C(C(=O)OC/C=C/c2ccccc2)C1c1cccc([N+](=O)[O-])c1 (stereo not drawn) [Cilnidipine]	95%	95%	68%	
CN1CCN(C2=Nc3cc(Cl)ccc3Nc3ccccc32)CC1 [Clozapine]	108%	95%	85%	
Cc1cc(Nc2cc(CN3CCOCC3)c3nc(C)c(Cc4ccc(Cl)cc4F)n3n2)n[nH]1 [LY2784544]	146%	167%	95%	
NCCCC(O)(P(=O)(O)O)P(=O)(O)O [Alendronate]				% Phosphatase Activity (compared to DMSO) PRL-1 (recombinant PRL-1): 110%; % Phosphatase Activity (compared to DMSO) PRL-2 (recombinant PRL-2): 93%; % Phosphatase Activity (compared to DMSO) PRL-3 (recombinant PRL-3): 79%
Cc1cc(O)cc(C)c1Cl [Chloroxylenol]	93%	112%	92%	
C[C@]12CC[C@@H]3c4ccc(O)cc4C[C@@H](CCCCCCCCC[S+]([O-])CCCC(F)(F)C(F)(F)F)[C@H]3[C@@H]1CC[C@@H]2O (stereo partly drawn) [Fulvestrant]	99%	91%	82%	
CN(C)CCN(Cc1ccccc1)c1ccccn1 [Tripelennamine HCl]				% Phosphatase Activity (compared to DMSO) PRL-1 (recombinant PRL-1; [2]): 91%; % Phosphatase Activity (compared to DMSO) PRL-2 (recombinant PRL-2; [2]): 119%; % Phosphatase Activity (compared to DMSO) PRL-3 (recombinant PRL-3; [2]): 112%
NC[C@@H]1O[C@H](O[C@H]2[C@@H](O)[C@H](O[C@@H]3[C@@H](O)[C@H](N)C[C@H](N)[C@H]3O[C@H]3O[C@H](CN)[C@@H](O)[C@H](O)[C@H]3N)O[C@@H]2CO)[C@H](N)[C@@H](O)[C@@H]1O.O=S(=O)(O)O [Neomycin sulfate]	98%	103%	86%	
COC(=O)N[C@H](C(=O)N[C@@H](Cc1ccccc1)[C@@H](O)CN(Cc1ccc(-c2ccccn2)cc1)NC(=O)[C@@H](NC(=O)OC)C(C)(C)C)C(C)(C)C [Atazanavir]	94%	89%	85%	

Compound	% Phosphatase Activity (compared to DMSO) PRL-1 (recombinant PRL-1; [1])	% Phosphatase Activity (compared to DMSO) PRL-2 (recombinant PRL-2; [1])	% Phosphatase Activity (compared to DMSO) PRL-3 (recombinant PRL-3; [1])	other results
COc1ccc2[nH]c([S+]([O-])Cc3ncc(C)c(OC)c3C)nc2c1 (stereo not drawn) [Omeprazole]	89%	96%	54%	
CN1CCN(c2nc(C3=C(c4c[nH]c5ccccc45)C(=O)NC3=O)c3ccccc3n2)CC1 [Sotrastaurin]				% Phosphatase Activity (compared to DMSO) PRL-1 (recombinant PRL-1; [2]): 83%; % Phosphatase Activity (compared to DMSO) PRL-2 (recombinant PRL-2; [2]): 89%; % Phosphatase Activity (compared to DMSO) PRL-3 (recombinant PRL-3; [2]): 85%
CC(=O)Oc1cccc2c1C(=O)c1c(OC(C)=O)cc(C(=O)O)cc1C2=O [Diacerein]	32%	51%	31%	
[I-].[K+] [Potassium Iodide]	94%	91%	87%	
O=C(O)P(=O)(O)O [Foscarnet Sodium]	109%	109%	91%	
C[C@@H]1C[C@H]2[C@@H]3CCC4=CC(=O)C=C[C@]4(C)[C@@]3(F)[C@@H](O)C[C@]2(C)[C@@]1(O)C(=O)CO [Dexamethasone (DHAP)]	99%	94%	66%	
CC(C)[N+]1(C)[C@@H]2CC[C@H]1C[C@@H](OC(=O)C(CO)c1ccccc1)C2 (stereo partly drawn) [Ipratropium Bromide]	103%	93%	83%	
CCCC(=O)[O-].[Na+] [Sodium butyrate]				% Phosphatase Activity (compared to DMSO) PRL-1 (recombinant PRL-1; [2]): 97%; % Phosphatase Activity (compared to DMSO) PRL-2 (recombinant PRL-2; [2]): 90%; % Phosphatase Activity (compared to DMSO) PRL-3 (recombinant PRL-3; [2]): 89%
Nc1nc(F)nc2c1ncn2[C@@H]1O[C@H](COP(=O)(O)O)[C@@H](O)[C@@H]1O [Fludarabine Phosphate]	97%	91%	70%	
CCCN(CCC)CCc1cccc2c1CC(=O)N2 [Ropinirole HCl]	103%	122%	78%	
CN1CCC(OC(c2ccccc2)c2ccccc2)CC1 [Diphenylpyraline HCl]	97%	100%	98%	
CNC(=O)c1cc(Oc2ccc(NC(=O)Nc3ccc(Cl)c(C(F)(F)F)c3)cc2)ccn1 [Sorafenib Tosylate]				% Phosphatase Activity (compared to DMSO) PRL-1 (recombinant PRL-1; [2]): 85%; % Phosphatase Activity (compared to DMSO) PRL-2 (recombinant PRL-2; [2]): 93%; % Phosphatase Activity (compared to DMSO) PRL-3 (recombinant PRL-3; [2]): 73%
N=C(N)NC(=O)c1nc(Cl)c(N)nc1N [Amiloride HCl]	234%	300%	230%	
CCCCNC(=O)NS(=O)(=O)c1ccc(C)cc1 [Tolbutamide]				% Phosphatase Activity (compared to DMSO) PRL-1 (recombinant PRL-1; [2]): 104%; % Phosphatase Activity (compared to DMSO) PRL-2 (recombinant PRL-2; [2]): 119%; % Phosphatase Activity (compared to DMSO) PRL-3 (recombinant PRL-3; [2]): 91%
CCCSc1ccc2nc(NC(=O)OC)[nH]c2c1 [Albendazole]				% Phosphatase Activity (compared to DMSO) PRL-1 (recombinant PRL-1): 102%; % Phosphatase Activity (compared to DMSO) PRL-2 (recombinant PRL-2): 88%; % Phosphatase Activity (compared to DMSO) PRL-3 (recombinant PRL-3): 78%
CN(C)CCc1c[nH]c2ccc(CS(=O)(=O)N3CCCC3)cc12.O=C(O)CC(O)C(=O)O [Almotriptan Malate]	97%	114%	68%	
N[C@@H](Cc1cc(I)c(Oc2cc(I)c(O)c(I)c2)c(I)c1)C(=O)O [L-Thyroxine]	79%	92%	81%	
COC(=O)[C@@H]1CC2=CC(=O)CC[C@]2(C)[C@@]23O[C@@H]2C[C@@]2(C)[C@@H](CC[C@@]24CCC(=O)O4)[C@H]13 [Eplerenone]	105%	112%	81%	
NS(=O)(=O)c1cc2c(cc1Cl)NCNS2(=O)=O [Hydrochlorothiazide]	97%	122%	76%	
